These results are taken from US8299048B2, “Hexahydrocyclopentyl[f]indazole sulfonamides and derivatives thereof as selective glucocorticoid receptor modulators” (Merck Sharp & Dohme Corp., priority 2008, dated 2012).

For the test, the target named is T1, human GR (Homo sapiens, UniProt P04150).
T1 sequence (P04150 1-777): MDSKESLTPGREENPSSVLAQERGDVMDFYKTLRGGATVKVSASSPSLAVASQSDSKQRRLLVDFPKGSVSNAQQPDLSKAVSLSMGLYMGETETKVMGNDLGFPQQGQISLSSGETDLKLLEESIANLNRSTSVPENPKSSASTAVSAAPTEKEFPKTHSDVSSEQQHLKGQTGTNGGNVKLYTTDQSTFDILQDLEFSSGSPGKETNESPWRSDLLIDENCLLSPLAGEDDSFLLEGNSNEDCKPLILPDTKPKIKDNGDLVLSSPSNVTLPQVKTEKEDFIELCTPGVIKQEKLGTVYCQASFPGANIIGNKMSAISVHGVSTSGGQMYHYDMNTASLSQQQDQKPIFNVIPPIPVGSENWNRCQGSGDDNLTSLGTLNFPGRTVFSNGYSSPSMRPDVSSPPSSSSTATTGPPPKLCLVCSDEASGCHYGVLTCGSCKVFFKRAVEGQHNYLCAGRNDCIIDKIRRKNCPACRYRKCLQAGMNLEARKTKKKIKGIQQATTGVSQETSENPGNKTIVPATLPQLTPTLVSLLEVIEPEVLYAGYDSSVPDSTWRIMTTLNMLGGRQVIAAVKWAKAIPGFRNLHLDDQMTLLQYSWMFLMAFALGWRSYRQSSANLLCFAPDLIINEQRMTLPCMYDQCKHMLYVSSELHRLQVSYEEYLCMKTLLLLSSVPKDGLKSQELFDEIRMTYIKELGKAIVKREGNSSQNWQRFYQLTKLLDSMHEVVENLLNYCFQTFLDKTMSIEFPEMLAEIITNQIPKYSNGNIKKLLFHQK
Kind of test: Trans-Activation Modulation of Glucocorticoid Receptor (GRAMMER), MMTV-LUC reporter, agonist mode. The test is classed as cell-based. Further details: endogenous in cells. The settings on record: for Emax: A549, A549 cells, maximum activity, read-out: Transactivation A549 Cells GRAMMER Emax; for EC50: A549 cells, inflection point, read-out: Transactivation A549 Cells GRAMMER IP. The source says:
This assay assesses the ability of test compounds to control transcription from the MMTV-LUC reporter gene in lung adenocarcinoma A549 cells or MDA-MB-453 cells, a human breast cancer cell line that naturally expresses the human GR. The assay measures induction of a modified MMTV LTR/promoter linked to the LUC reporter gene.
The routine transient assay consists of plating 7,000-25,000 cells/well of a white, clear-bottom 96-well plate. Alternatively, 384-well plates can be used at a cell concentration of 10,000/well. The media that the cells are plated in is “exponential growth medium” which consists of phenol red-free RPMI1640 containing 10% FBS, 4 mM L-glutamine, 20 mM HEPES, 10 ug/mL human insulin, and 20 ug/mL gentamicin. Incubator conditions are 37° C. and 5% CO2. The transfection is done in batch mode. The cells are trypsinized and counted to the right cell number in the proper amount of fresh media. It is then gently mixed with the FuGene6/DNA mix and plated onto the 96 or 384-well plate, all the wells receive 100 uL or 40 uL, respectively, of medium+lipid/DNA complex then incubated 37° C. overnight. The transfection cocktail consists of serum-free OptiMEM, FuGene6 reagent and DNA. The manufacturer's (Roche Biochemical) protocol for cocktail setup is as follows: The lipid to DNA ratio is approximately 2.5:1 and the incubation time is 20 min at room temperature. Sixteen to 24 hours after transfection, the cells are treated with dexamethasone to a final concentration of 10 nM as well as the compound of interest, such that final DMSO (vehicle) concentration is equal to or less than 1%. Each plate also contains samples that are treated with 10 nM dexamethasone alone, which is used as the 100% activity control. The cells are exposed to the compounds for 24 hours. After 24 hours, the cells are lysed by a Promega cell culture lysis buffer for approximately 30 min and then the luciferase activity in the extracts is assayed in the 96-well format luminometer. In 384-well format, Steady-Glo (Promega) or Steady-Lite (PerkinElmer) can be used by adding an equal volume of reagent to the media present in each well. Activity induced by 10 nM dexamethasone alone is set at 100% activity. Antagonist activity is calculated by determining the decrease in dexamethasone-induced activity in response to compound treatment relative to samples that were treated with dexamethasone alone. […] This transactivation assay can be performed in an agonist and antagonist mode to identify these different activities.

For the compound `C[C@]12Cc3cnn(-c4ccc(F)cc4)c3C=C1CC[C@@H]2CN(CC1CC1)S(=O)(=O)c1cc(C(F)(F)F)ccc1Cl` [Example 5, 2-chloro-N-(cyclopropylmethyl)-N-{[(4αR,5S)-1-(4-fluorophenyl)-4α-methyl-1,4,4α,5,6,7-hexahydrocyclopenta[f]indazol-5-yl]methyl}-5-(trifluoromethyl)benzenesulfonamide], the Emax was found to be 2.9% and the EC50 amounted to 422 nM.
Taken in the same sequence, the figures for `CC(=O)Nc1ccc(S(=O)(=O)N(CC2CC2)C[C@H]2CCC3=Cc4c(cnn4-c4ccc(F)cc4)C[C@@]32C)cc1` [Example 6, N-{4-[((cyclopropylmethyl){[(4αR,5S)-1-(4-fluorophenyl)-4α-methyl-1,4,4α,5,6,7-hexahydrocyclopenta[f]indazol-5-yl]methyl}amino)sulfonyl]phenyl}acetamide] were 13% and 402 nM.
Taken in the same sequence, the figures for `Cc1nn(C)c(Cl)c1S(=O)(=O)N(CC1CC1)C[C@H]1CCC2=Cc3c(cnn3-c3ccc(F)cc3)C[C@@]21C` [Example 7] were 36.3% and 351 nM.
Taken in the same sequence, the figures for `CN1CCOc2cc(S(=O)(=O)N(CC3CC3)C[C@H]3CCC4=Cc5c(cnn5-c5ccc(F)cc5)C[C@@]43C)ccc21` [Example 8, N-(cyclopropylmethyl)-N-{[(4αR,5S)-1-(4-fluorophenyl)-4α-methyl-1,4,4α,5,6,7-hexahydrocyclopenta[f]indazol-5-yl]methyl}-4-methyl-3,4-dihydro-2H-1,4-benzoxazine-7-sulfonamide] were 4.9% and 37 nM.
Consider `CCCCCc1ccc(S(=O)(=O)N(CC2CC2)C[C@H]2CCC3=Cc4c(cnn4-c4ccc(F)cc4)C[C@@]32C)cc1` [Example 9, N-(cyclopropylmethyl)-N-{[(4αR,5S)-1-(4-fluorophenyl)-4α-methyl-1,4,4α,5,6,7-hexahydrocyclopenta[f]indazol-5-yl]methyl}-4-pentylbenzenesulfonamide], for which the Emax was 12.7% and the EC50 turned out to be 1130 nM.
The like results for `C[C@]12Cc3cnn(-c4ccc(F)cc4)c3C=C1CC[C@@H]2CN(CC1CC1)S(=O)(=O)c1ccc(-c2ccccc2)cc1` [Example 10, N-(cyclopropylmethyl)-N-{[(4αR,5S)-1-(4-fluorophenyl)-4α-methyl-1,4,4α,5,6,7-hexahydrocyclopenta[f]indazol-5-yl]methyl}biphenyl-4-sulfonamide] were, in that order, 12.3% and 615 nM.
Taken in the same sequence, the figures for `Cc1noc(C)c1S(=O)(=O)N(CC1CC1)C[C@H]1CCC2=Cc3c(cnn3-c3ccc(F)cc3)C[C@@]21C` [Example 11, N-(cyclopropylmethyl)-N-{[(4αR,5S)-1-(4-fluorophenyl)-4α-methyl-1,4,4α,5,6,7-hexahydrocyclopenta[f]indazol-5-yl]methyl}-3,5-dimethylisoxazole-4-sulfonamide] were 66% and 235 nM.
The like results for `CCCS(=O)(=O)N(CCOC)C[C@H]1CCC2=Cc3c(cnn3-c3ccc(F)cc3)C[C@@]21C` [Example 95, N-{[(4αR,5S)-1-(4-fluorophenyl)-4α-methyl-1,4,4α,5,6,7-hexahydrocyclopenta[f]indazol-5-yl]methyl}-N-(2-methoxyethyl)propane-1-sulfonamide] were, in that order, 70.4% and 559 nM.
`COCCN(C[C@H]1CCC2=Cc3c(cnn3-c3ccc(F)cc3)C[C@@]21C)S(C)(=O)=O` [Example 96, N-{[(4αR,5S)-1-(4-fluorophenyl)-4α-methyl-1,4,4α,5,6,7-hexahydrocyclopenta[f]indazol-5-yl]methyl}-N-(2-methoxyethyl)methanesulfonamide]: the maximum response (Emax) amounted to 65.7% and the EC50 came out at 152 nM.
Turning to `COCCN(C[C@H]1CCC2=Cc3c(cnn3-c3ccc(F)cc3)C[C@@]21C)S(=O)(=O)CC(F)(F)F` [Example 97, 2,2,2-trifluoro-N-{[(4αR,5S)-1-(4-fluorophenyl)-4α-methyl-1,4,4α,5,6,7-hexahydrocyclopenta[f]indazol-5-yl]methyl}-N-(2-methoxyethyl)ethanesulfonamide], the maximal response (Emax) worked out at 83.8% and the EC50 worked out at 48.9 nM.
On to `Cn1cc(S(=O)(=O)N(CCc2ccccc2F)C[C@H]2CCC3=Cc4c(cnn4-c4ccc(F)cc4)C[C@@]32C)c(C(F)(F)F)n1` [Example 98, N-[2-(2-fluorophenyl)ethyl]-N-{[(4αR,5S)-1-(4-fluorophenyl)-4α-methyl-1,4,4α,5,6,7-hexahydrocyclopenta[f]indazol-5-yl]methyl}-1-methyl-3-(trifluoromethyl)-1H-pyrazole-4-sulfonamide], for which the maximal response (Emax) was determined as 76.7% and the EC50 was 239 nM.
The like results for `C[C@]12Cc3cnn(-c4ccc(F)cc4)c3C=C1CC[C@@H]2CN(CCc1ccccc1F)S(=O)(=O)c1ccccc1C(F)(F)F` [Example 99, N-[2-(2-fluorophenyl)ethyl]-N-{[(4αR,5S)-1-(4-fluorophenyl)-4α-methyl-1,4,4α,5,6,7-hexahydrocyclopenta[f]indazol-5-yl]methyl}-2-(trifluoromethyl)benzenesulfonamide] were, in that order, 62.1% and 236 nM.
With `C[C@]12Cc3cnn(-c4ccc(F)cc4)c3C=C1CC[C@@H]2CN(CCc1ccccc1F)S(=O)(=O)c1ccccc1Cl` [Example 100, 2-chloro-N-[2-(2-fluorophenyl)ethyl]-N-{[(4αR,5S)-1-(4-fluorophenyl)-4α-methyl-1,4,4α,5,6,7-hexahydrocyclopenta[f]indazol-5-yl]methyl}benzenesulfonamide], the Emax was 64.9% and the EC50 was 397 nM.
The like results for `CCCCS(=O)(=O)N(CCc1ccccc1F)C[C@H]1CCC2=Cc3c(cnn3-c3ccc(F)cc3)C[C@@]21C` [Example 102, N-[2-(2-fluorophenyl)ethyl]-N-{[(4αR,5S)-1-(4-fluorophenyl)-4α-methyl-1,4,4α,5,6,7-hexahydrocyclopenta[f]indazol-5-yl]methyl}butane-1-sulfonamide] were, in that order, 78.3% and 203 nM.
Regarding `CC(C)CS(=O)(=O)N(CCc1ccccc1F)C[C@H]1CCC2=Cc3c(cnn3-c3ccc(F)cc3)C[C@@]21C` [Example 103, N-[2-(2-fluorophenyl)ethyl]-N-{[(4αR,5S)-1-(4-fluorophenyl)-4α-methyl-1,4,4α,5,6,7-hexahydrocyclopenta[f]indazol-5-yl]methyl}-2-methylpropane-1-sulfonamide], the Emax came to 68.8% and the EC50 turned out to be 367 nM.
Taken in the same sequence, the figures for `CCCCCCCCS(=O)(=O)N(CCc1ccccc1F)C[C@H]1CCC2=Cc3c(cnn3-c3ccc(F)cc3)C[C@@]21C` [Example 104, N-[2-(2-fluorophenyl)ethyl]-N-{[(4αR,5S)-1-(4-fluorophenyl)-4α-methyl-1,4,4α,5,6,7-hexahydrocyclopenta[f]indazol-5-yl]methyl}octane-1-sulfonamide] were 9.2% and 258 nM.
As for `C[C@]12Cc3cnn(-c4ccc(F)cc4)c3C=C1CC[C@@H]2CN(CCc1ccccc1F)S(=O)(=O)Cc1ccc(Cl)cc1Cl` [Example 105, 1-(2,4-dichlorophenyl)-N-[2-(2-fluorophenyl)ethyl]-N-{[(4αR,5S)-1-(4-fluorophenyl)-4α-methyl-1,4,4α,5,6,7-hexahydrocyclopenta[f]indazol-5-yl]methyl}methanesulfonamide], the maximal response (Emax) turned out to be 85.5% and the EC50 turned out to be 193 nM.
